# Where “and” joins values, the source holds several entries; their conditions need not be identical. Identical values can stand only once.
# Tested on: 349418-098-R-PDC complex spheroid viability
# Experiment: Anticancer human tumor 349418-098-R-PDC patient-derived lung adenocarcinoma cell line growth inhibition
# Details: for viability, T/C: stronger effect = lower value
# Procedure, shortened: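 Multicellular complex spheroids of tumor cells with human endothelial cells (HUVEC) and mesenchymal stem cells; the LSD1 inhibitor iadademstat was combined with standard-of-care or investigational agents. Top concentration at or near clinical Cmax, half-log dilutions; final DMSO ≤0.25%.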
# [1] = curve of first compound, second compound 0.1 µM
# [2] = curve of first compound, second compound 0.316 µM
# [3] = curve of first compound, second compound 1 µM
# [4] = curve of first compound, second compound 3.16 µM
# [5] = curve of first compound, second compound 10 µM
# [6] = second compound 0.1 µM, first compound 0.0316 µM
# [7] = second compound 0.1 µM, first compound 0.1 µM
# [8] = second compound 0.316 µM, first compound 0.0316 µM
# [9] = second compound 0.316 µM, first compound 0.1 µM
# [10] = second compound 1 µM, first compound 0.0316 µM
# [11] = second compound 1 µM, first compound 0.1 µM
# [12] = second compound 3.16 µM, first compound 0.0316 µM
# [13] = second compound 3.16 µM, first compound 0.1 µM
# [14] = second compound 10 µM, first compound 0.0316 µM
# [15] = second compound 10 µM, first compound 0.1 µM
# 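Note: spheroids exposed to agents for seven days before readout.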
# 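Throughout, for viability, T/C: 100% = DMSO vehicle control wells.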
smiles,measurement,setting,value
COc1ccc([C@@H](O)c2cc(-c3ncnc4cc(N5CCOCC5)ccc34)c(F)cc2Cl)nn1 + NC1CC1c1ccc(-c2cccc(O)c2)cc1,IC50,[1],0.696 µM
same,IC50,[2],0.741 µM
same,IC50,[3],0.644 µM
same,IC50,[4],0.547 µM
same,IC50,[5],0.185 µM
same,"viability, T/C",[6],96.6%
same,"viability, T/C",[7],88.1%
same,"viability, T/C","second compound 0.1 µM, first compound 0.316 µM",71.4%
same,"viability, T/C","second compound 0.1 µM, first compound 1 µM",42.1%
same,"viability, T/C","second compound 0.1 µM, first compound 3.16 µM",10.1%
same,"viability, T/C","second compound 0.1 µM, first compound 10 µM",3.99%
same,"viability, T/C",[8],104%
same,"viability, T/C",[9],93.8%
same,"viability, T/C","second compound 0.316 µM, first compound 0.316 µM",87.7%
same,"viability, T/C","second compound 0.316 µM, first compound 1 µM",36.8%
same,"viability, T/C","second compound 0.316 µM, first compound 3.16 µM",8.34%
same,"viability, T/C","second compound 0.316 µM, first compound 10 µM",3.86%
same,"viability, T/C",[10],106%
same,"viability, T/C",[11],91.9%
same,"viability, T/C","second compound 1 µM, first compound 0.316 µM",75%
same,"viability, T/C","second compound 1 µM, first compound 1 µM",36.2%
same,"viability, T/C","second compound 1 µM, first compound 3.16 µM",7.37%
same,"viability, T/C","second compound 1 µM, first compound 10 µM",4.08%
same,"viability, T/C",[12],94.8%
same,"viability, T/C",[13],83.5%
same,"viability, T/C","second compound 3.16 µM, first compound 0.316 µM",67.9%
same,"viability, T/C","second compound 3.16 µM, first compound 1 µM",32.1%
same,"viability, T/C","second compound 3.16 µM, first compound 3.16 µM",6.81%
same,"viability, T/C","second compound 3.16 µM, first compound 10 µM",4.07%
same,"viability, T/C",[14],71.7%
same,"viability, T/C",[15],62.7%
same,"viability, T/C","second compound 10 µM, first compound 0.316 µM",38.1%
same,"viability, T/C","second compound 10 µM, first compound 1 µM",21.9%
same,"viability, T/C","second compound 10 µM, first compound 3.16 µM",4.81%
same,"viability, T/C","second compound 10 µM, first compound 10 µM",3.46%
CC(C)c1c(-c2ccccc2)nc2c(C#N)c[nH]n2c1=O,"viability, T/C",compound 0.0316 µM,97% and 109%
same,"viability, T/C",compound 0.1 µM,105% and 109%
same,"viability, T/C",compound 0.316 µM,101% and 104%
same,"viability, T/C",compound 1 µM,95.7% and 105%
same,"viability, T/C",compound 3.16 µM,97.2% and 95.9%
same,"viability, T/C",compound 10 µM,85.2% and 82.5%
same,IC50,curve of compound,> 10 µM
Cn1ncnc1C1c2n[nH]c(=O)c3cc(F)cc(c23)NC1c1ccc(F)cc1 (configuration not stated) + NC1CCC(NC2CC2c2ccccc2)CC1,IC50,[1],> 0.1 µM
same,IC50,[2],> 0.1 µM
same,IC50,[3],> 0.1 µM
same,IC50,[4],> 0.1 µM
same,IC50,[5],> 0.1 µM
same,"viability, T/C","second compound 0.1 µM, first compound 0.000316 µM",101%
same,"viability, T/C","second compound 0.1 µM, first compound 0.001 µM",96%
same,"viability, T/C","second compound 0.1 µM, first compound 0.00316 µM",94.8%
same,"viability, T/C","second compound 0.1 µM, first compound 0.01 µM",95.3%
same,"viability, T/C",[6],106%
same,"viability, T/C",[7],92.5%
same,"viability, T/C","second compound 0.316 µM, first compound 0.000316 µM",108%
same,"viability, T/C","second compound 0.316 µM, first compound 0.001 µM",110%
same,"viability, T/C","second compound 0.316 µM, first compound 0.00316 µM",116%
same,"viability, T/C","second compound 0.316 µM, first compound 0.01 µM",92.2%
same,"viability, T/C",[8],97.6%
same,"viability, T/C",[9],99.5%
same,"viability, T/C","second compound 1 µM, first compound 0.000316 µM",115%
same,"viability, T/C","second compound 1 µM, first compound 0.001 µM",112%
same,"viability, T/C","second compound 1 µM, first compound 0.00316 µM",96.8%
same,"viability, T/C","second compound 1 µM, first compound 0.01 µM",112%
same,"viability, T/C",[10],111%
same,"viability, T/C",[11],87%
same,"viability, T/C","second compound 3.16 µM, first compound 0.000316 µM",107%
same,"viability, T/C","second compound 3.16 µM, first compound 0.001 µM",101%
same,"viability, T/C","second compound 3.16 µM, first compound 0.00316 µM",99.4%
same,"viability, T/C","second compound 3.16 µM, first compound 0.01 µM",98.9%
same,"viability, T/C",[12],89.7%
same,"viability, T/C",[13],85.9%
same,"viability, T/C","second compound 10 µM, first compound 0.000316 µM",94.5%
same,"viability, T/C","second compound 10 µM, first compound 0.001 µM",91.2%
same,"viability, T/C","second compound 10 µM, first compound 0.00316 µM",94.6%
same,"viability, T/C","second compound 10 µM, first compound 0.01 µM",86.8%
same,"viability, T/C",[14],83.7%
same,"viability, T/C",[15],87.3%
Nc1ccccc1NC(=O)c1ccc(CNC(=O)OCc2cccnc2)cc1 + NC1CCC(NC2CC2c2ccccc2)CC1,IC50,[1],0.244 µM
same,IC50,[2],0.279 µM
same,IC50,[3],0.224 µM
same,IC50,[4],0.314 µM
same,IC50,[5],0.269 µM
same,"viability, T/C","second compound 0.1 µM, first compound 0.00949 µM",106%
same,"viability, T/C","second compound 0.1 µM, first compound 0.03 µM",88.6%
same,"viability, T/C","second compound 0.1 µM, first compound 0.0949 µM",76.2%
same,"viability, T/C","second compound 0.1 µM, first compound 0.3 µM",46.2%
same,"viability, T/C","second compound 0.1 µM, first compound 0.949 µM",15.4%
same,"viability, T/C","second compound 0.1 µM, first compound 3 µM",5.1%
same,"viability, T/C","second compound 0.316 µM, first compound 0.00949 µM",102%
same,"viability, T/C","second compound 0.316 µM, first compound 0.03 µM",97.3%
same,"viability, T/C","second compound 0.316 µM, first compound 0.0949 µM",81.8%
same,"viability, T/C","second compound 0.316 µM, first compound 0.3 µM",48.9%
same,"viability, T/C","second compound 0.316 µM, first compound 0.949 µM",15.4%
same,"viability, T/C","second compound 0.316 µM, first compound 3 µM",5.32%
same,"viability, T/C","second compound 1 µM, first compound 0.00949 µM",117%
same,"viability, T/C","second compound 1 µM, first compound 0.03 µM",85.9%
same,"viability, T/C","second compound 1 µM, first compound 0.0949 µM",73.6%
same,"viability, T/C","second compound 1 µM, first compound 0.3 µM",46.3%
same,"viability, T/C","second compound 1 µM, first compound 0.949 µM",15.9%
same,"viability, T/C","second compound 1 µM, first compound 3 µM",5.11%
same,"viability, T/C","second compound 3.16 µM, first compound 0.00949 µM",104%
same,"viability, T/C","second compound 3.16 µM, first compound 0.03 µM",85.8%
same,"viability, T/C","second compound 3.16 µM, first compound 0.0949 µM",83.6%
same,"viability, T/C","second compound 3.16 µM, first compound 0.3 µM",53%
same,"viability, T/C","second compound 3.16 µM, first compound 0.949 µM",15.6%
same,"viability, T/C","second compound 3.16 µM, first compound 3 µM",5.33%
same,"viability, T/C","second compound 10 µM, first compound 0.00949 µM",96.1%
same,"viability, T/C","second compound 10 µM, first compound 0.03 µM",91.1%
same,"viability, T/C","second compound 10 µM, first compound 0.0949 µM",75.5%
same,"viability, T/C","second compound 10 µM, first compound 0.3 µM",50.2%
same,"viability, T/C","second compound 10 µM, first compound 0.949 µM",12.7%
same,"viability, T/C","second compound 10 µM, first compound 3 µM",4.33%
